Tests used:
Assay type in all cases: cell-based; call rule not given here
[1] = target: T1, ATP-dependent translocase ABCB1 (Homo sapiens, UniProt P08183); assay: Inhibition of ABCB1 in human SW620/AD300 cells assessed as potentiation of paclitaxel-induced cytotoxicity by measuring fold reduction in paclitaxel IC50 at 2 uM preincubated for 4 hrs followed by paclitaxel addition measured after 72 hrs by MTT assay
[2] = target: T1, ATP-dependent translocase ABCB1; assay: Inhibition of ABCB1 in human SW620/AD300 cells assessed as increase in Rh123 accumulation at 2 uM preincubated or 4 hrs followed by Rh123 addition measured after 30 mins by flow cytometry; details: 0.5 h
[3] = target: T1, ATP-dependent translocase ABCB1; assay: Inhibition of ABCB1 in human SW620/AD300 cells assessed as reduction in paclitaxel efflux at 2 uM treated followed by 2 hrs of paclitaxel treatment in paclitaxel free medium for 30 mins by flow cytometry
[4] = target: T1, ATP-dependent translocase ABCB1; assay: Inhibition of ABCB1 in human SW620/AD300 cells assessed as potentiation of paclitaxel-induced cytotoxicity by measuring fold reduction in paclitaxel IC50 at 2 uM preincubated for 4 hrs followed by paclitaxel addition measured after 72 hrs by MTT assay relative to verapamil
[5] = target: T1, ATP-dependent translocase ABCB1; assay: Inhibition of ABCB1 (unknown origin) expressed in HEK293T cells assessed as potentiation of colchicine-induced cytotoxicity by measuring fold reduction in colchicine IC50 at 2 uM preincubated for 4 hrs followed by […] measured after 72 hrs by MTT assay
[6] = target: T1, ATP-dependent translocase ABCB1; assay: Inhibition of ABCB1 (unknown origin) expressed in HEK293T cells assessed as potentiation of paclitaxel-induced cytotoxicity by measuring fold reduction in paclitaxel IC50 at 2 uM preincubated for 4 hrs followed by paclitaxel addition measured after 72 hrs by MTT assay
[7] = target: T1, ATP-dependent translocase ABCB1; assay: Binding affinity at ABCB1 in human SW620/AD300 cells assessed as thermal stabilization at 2 uM preincubated for 4 hrs followed by incubation 40 to 61 degC for 3 mins by CETSA; details: 0.05 h
[8] = target: T1, ATP-dependent translocase ABCB1; assay: Inhibition of ABCB1 in human SW620/AD300 cells assessed as reduction in Rh123 efflux at 2 uM treated followed by Rh123 addition in Rh123 free medium for 30 to 120 mins by flow cytometry
[9] = target: T1, ATP-dependent translocase ABCB1; assay: Inhibition of ABCB1 in human SW620/AD300 cells assessed as potentiation of colchicine-induced cytotoxicity by measuring fold reduction in colchicine IC50 at 2 uM preincubated for 4 hrs followed by […] measured after 72 hrs by MTT assay relative to verapamil
[10] = target: T1, ATP-dependent translocase ABCB1; assay: Inhibition of ABCB1 in human SW620/AD300 cells assessed as potentiation of colchicine-induced cytotoxicity by measuring fold reduction in colchicine IC50 at 2 uM preincubated for 4 hrs followed by […] measured after 72 hrs by MTT assay

T1 sequence (P08183 whole entry): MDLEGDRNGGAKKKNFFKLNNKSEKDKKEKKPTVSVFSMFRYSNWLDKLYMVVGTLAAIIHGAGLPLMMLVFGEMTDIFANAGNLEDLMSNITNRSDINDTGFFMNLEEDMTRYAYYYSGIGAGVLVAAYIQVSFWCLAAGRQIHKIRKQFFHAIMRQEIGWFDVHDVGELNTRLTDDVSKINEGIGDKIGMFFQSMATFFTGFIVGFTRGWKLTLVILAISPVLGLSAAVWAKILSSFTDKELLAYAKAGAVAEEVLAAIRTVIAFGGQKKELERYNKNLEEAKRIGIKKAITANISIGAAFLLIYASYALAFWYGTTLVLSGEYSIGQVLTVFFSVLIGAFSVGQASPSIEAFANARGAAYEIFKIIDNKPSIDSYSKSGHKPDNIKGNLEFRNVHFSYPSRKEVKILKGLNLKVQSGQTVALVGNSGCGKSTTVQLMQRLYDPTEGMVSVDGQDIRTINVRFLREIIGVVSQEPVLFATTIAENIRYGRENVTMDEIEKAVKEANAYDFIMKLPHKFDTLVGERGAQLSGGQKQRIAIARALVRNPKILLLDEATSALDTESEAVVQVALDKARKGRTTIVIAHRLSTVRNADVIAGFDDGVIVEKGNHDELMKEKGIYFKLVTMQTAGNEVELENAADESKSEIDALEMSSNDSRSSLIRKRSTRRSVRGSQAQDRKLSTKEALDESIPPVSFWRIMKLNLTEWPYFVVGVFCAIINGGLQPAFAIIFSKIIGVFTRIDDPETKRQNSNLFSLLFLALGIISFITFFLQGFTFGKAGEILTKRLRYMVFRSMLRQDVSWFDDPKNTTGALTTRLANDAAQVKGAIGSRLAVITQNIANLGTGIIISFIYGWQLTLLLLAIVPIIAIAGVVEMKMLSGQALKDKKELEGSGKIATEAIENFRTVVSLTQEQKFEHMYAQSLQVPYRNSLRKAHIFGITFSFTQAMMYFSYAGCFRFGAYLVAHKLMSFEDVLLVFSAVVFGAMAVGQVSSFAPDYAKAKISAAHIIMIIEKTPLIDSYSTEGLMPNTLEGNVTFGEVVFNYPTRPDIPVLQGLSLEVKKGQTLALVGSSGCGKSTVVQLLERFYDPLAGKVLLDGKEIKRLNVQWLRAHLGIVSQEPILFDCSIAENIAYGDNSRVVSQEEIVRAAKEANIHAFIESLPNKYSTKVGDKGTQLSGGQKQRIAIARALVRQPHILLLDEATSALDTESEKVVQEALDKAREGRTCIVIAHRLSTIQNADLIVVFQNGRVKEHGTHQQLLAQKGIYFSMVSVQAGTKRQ

Row | Compound | fold change (FC) [1] | also measured
1 | Cc1ccc(Cn2cc(CSc3nc(Nc4ccc(C)cc4)c(C#N)c(-c4ccccc4)n3)nn2)cc1 | 4.35 | 
2 | COc1ccccc1Nc1nc(SCc2cn(Cc3ccccc3Cl)nn2)nc(-c2ccccc2)c1C#N | 2.29 | 
3 | Cc1ccc(Nc2nc(SCc3cn(Cc4ccccc4Cl)nn3)nc(-c3ccc(C(C)C)cc3)c2C#N)cc1 | 51.12 | 
4 | N#Cc1c(Nc2ccccc2)nc(SCc2cn(Cc3ccccc3Cl)nn2)nc1-c1ccccc1 | 7.86 | 
5 | N#Cc1c(Nc2ccccc2Cl)nc(SCc2cn(Cc3ccccc3Cl)nn2)nc1-c1ccccc1 | 24.06 | 
6 | C#CCSc1nc(Nc2ccccc2Cl)c(C#N)c(-c2ccccc2)n1 | 1.32 | 
7 | Cc1ccc(Nc2nc(SCc3cn(Cc4ccccc4Cl)nn3)nc(-c3ccc(C)cc3)c2C#N)cc1 | 17.04 | 
8 | COc1cc(-c2nc(SCc3cn(Cc4ccccc4Cl)nn3)nc(Nc3ccc(C)cc3)c2C#N)cc(OC)c1OC | 34.08 | 
9 | COc1ccc(Nc2nc(SCc3cn(Cc4ccccc4Cl)nn3)nc(-c3ccccc3)c2C#N)cc1 | 6.7 | 
10 | Cc1ccc(Cn2cc(CSc3nc(Nc4ccccc4Cl)c(C#N)c(-c4ccccc4)n3)nn2)cc1 | 1.09 | 
11 | N#Cc1c(Nc2ccc(F)cc2)nc(SCc2cn(Cc3ccccc3Cl)nn2)nc1-c1ccccc1 | 1.01 | 
12 | Cc1ccc(Nc2nc(SCc3cn(Cc4ccccc4Cl)nn3)nc(-c3ccccc3)c2C#N)cc1 | 3.58 | 
13 | Cc1ccc(Cn2cc(CSc3nc(Nc4ccccc4F)c(C#N)c(-c4ccccc4)n3)nn2)cc1 | 1 | 
14 | Cc1ccc(Cn2cc(CSc3nc(Nc4ccccc4C)c(C#N)c(-c4ccccc4)n3)nn2)cc1 | 4.44 | 
15 | Cc1ccc(Nc2nc(SCc3cn(Cc4ccc(Cl)cc4)nn3)nc(-c3ccccc3)c2C#N)cc1 | 8.7 | 
16 | C#CCSc1nc(Nc2cccc(Cl)c2)c(C#N)c(-c2ccccc2)n1 | 1.36 | 

Row | Compound | fold change (FC) [1] | also measured
17 | Cc1ccc(Nc2nc(SCc3cn(Cc4ccccc4Cl)nn3)nc(-c3ccc(Br)cc3)c2C#N)cc1 | 3.61 | 
18 | N#Cc1c(Nc2ccccc2F)nc(SCc2cn(Cc3ccc(Cl)cc3)nn2)nc1-c1ccccc1 | 1.35 | 
19 | Cc1ccc(Nc2nc(SCc3cn(Cc4ccccc4Cl)nn3)nc(-c3ccc(Cl)cc3)c2C#N)cc1 | 5.31 | 
20 | Cc1ccc(Nc2nc(SCc3cn(Cc4ccc(F)cc4)nn3)nc(-c3ccccc3)c2C#N)cc1 | 1.03 | 
21 | N#Cc1c(Nc2cccc(Cl)c2)nc(SCc2cn(Cc3ccccc3Cl)nn2)nc1-c1ccccc1 | 21.52 | 
22 | Cc1cccc(Nc2nc(SCc3cn(Cc4ccccc4Cl)nn3)nc(-c3ccccc3)c2C#N)c1 | 8.7 | 
23 | N#Cc1c(Nc2cccc([N+](=O)[O-])c2)nc(SCc2cn(Cc3ccccc3Cl)nn2)nc1-c1ccccc1 | 5.68 | 
24 | Cc1ccccc1Nc1nc(SCc2cn(Cc3ccccc3Cl)nn2)nc(-c2ccccc2)c1C#N | 5.6 | 
25 | C#CCSc1nc(Nc2ccc(Cl)cc2)c(C#N)c(-c2ccccc2)n1 | 1.64 | 
26 | C#CCSc1nc(Nc2cccc(C(F)(F)F)c2)c(C#N)c(-c2ccccc2)n1 | 1.2 | 
27 | Cc1ccccc1Nc1nc(SCc2cn(Cc3ccc(Cl)cc3)nn2)nc(-c2ccccc2)c1C#N | 136.33 | inhibition (INH) [2]: Active; inhibition (INH) [3]: Active; fold change (FC) [4]: 7; fold change (FC) [5]: 31.31; fold change (FC) [6]: 4.53; Activity [7]: Active; inhibition (INH) [8]: Active; fold change (FC) [9]: 2; fold change (FC) [10]: 5.04
28 | N#Cc1c(Nc2ccccc2F)nc(SCc2cn(Cc3ccccc3Cl)nn2)nc1-c1ccccc1 | 8.7 | 
29 | N#Cc1c(Nc2ccc(Cl)cc2)nc(SCc2cn(Cc3ccccc3Cl)nn2)nc1-c1ccccc1 | 2.02 | 
30 | N#Cc1c(Nc2cccc(C(F)(F)F)c2)nc(SCc2cn(Cc3ccccc3Cl)nn2)nc1-c1ccccc1 | 5.84 | 
31 | C#CCSc1nc(Nc2ccc(OC)cc2)c(C#N)c(-c2ccccc2)n1 | 1.92 | 
